Assay results reported in PubChem BioAssay (NCI).
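Test compounds were applied to cells in 96-well plates for 48 hours at 5 doses. GI50: concentration for 50% inhibition of growth. TGI denotes the concentration required for complete inhibition of growth.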

How the values were obtained:
Experiment in all cases: inhibition of tumour cell growth, NCI panel, 48 h
786-0 renal = tested on: 786-0 renal
A549 NSCLC = tested on: A549 NSCLC
HCT-15 colon = tested on: HCT-15 colon
HS 578T breast = tested on: HS 578T breast
M14 melanoma = tested on: M14 melanoma
NCI-H226 lung = tested on: NCI-H226 lung
NCI-H23 lung = tested on: NCI-H23 lung
NCI-H522 lung = tested on: NCI-H522 lung
SNB-19 CNS = tested on: SNB-19 CNS
SW-620 colon = tested on: SW-620 colon
HL-60(TB) leukemia = tested on: HL-60(TB) leukemia
NCI-H460 lung = tested on: NCI-H460 lung

SMILES | TGI (786-0 renal) | TGI (A549 NSCLC) | TGI (HCT-15 colon) | TGI (HS 578T breast) | TGI (M14 melanoma) | TGI (NCI-H226 lung) | TGI (NCI-H23 lung) | TGI (NCI-H522 lung) | TGI (SNB-19 CNS) | TGI (SW-620 colon) | TGI (HL-60(TB) leukemia) | TGI (NCI-H460 lung) | GI50 (NCI-H460 lung)
Cc1n(Cc2ccccc2)nc2sc(N)n[n+]12 | > 100 µM | > 100 µM | > 100 µM | > 100 µM | > 100 µM | > 100 µM | > 100 µM | > 100 µM | > 100 µM | > 100 µM |  |  | 
CSc1nc2c(c(=O)[nH]1)N=C(c1ccccc1)CC(c1ccccc1)N2 (stereo not given) | > 100 µM | > 100 µM |  |  | > 100 µM | > 100 µM | 98.2 µM | 43.9 µM | > 100 µM | > 100 µM | 59.2 µM | 27.2 µM | 
Cc1ccc(N/C(SCc2ccccc2)=C(\C(Cl)=C(Cl)Cl)[N+](=O)[O-])c(C)c1 | 54.3 µM | 90.6 µM | 34.9 µM | 68.4 µM | 34 µM | > 100 µM | 38.5 µM |  | > 100 µM | 33.3 µM |  | > 100 µM | 
COC(=O)CCC(NC(=O)OC(C)(C)C)C(=O)NC(Cc1ccc(NC(=O)CCCC(C)=O)cc1)C(=O)NC(CCC(=O)OC)C(=O)OC (stereo not given) | > 100 µM | > 100 µM | > 100 µM | > 100 µM | > 100 µM | > 100 µM | > 100 µM | > 100 µM | > 100 µM | > 100 µM |  | > 100 µM | 
N#Cc1c(-c2ccccc2)c(CN2CCCCC2)c(=O)n2c1[nH]c1ccccc12 | 95.6 µM | > 100 µM | > 100 µM |  | > 100 µM | > 100 µM | > 100 µM | 61.7 µM | > 100 µM | > 100 µM |  | > 100 µM | 
Cc1ccc2c(/C=C/c3ccc(N(C)C)cc3)ccc(C(C)C)cc1-2 | > 100 µM | > 100 µM |  | > 100 µM | > 100 µM | > 100 µM | > 100 µM | > 100 µM |  | > 100 µM | 88.3 µM |  | 
CC(=O)Nc1cccc(N=NN(C)C)c1 |  | > 100 µM | > 100 µM |  |  | > 100 µM | > 100 µM | > 100 µM | > 100 µM | > 100 µM | > 100 µM | > 100 µM | 
CCOc1ccc(N/C(=C(/C(Cl)=C(/Cl)NC(C)(C)C)[N+](=O)[O-])n2nnc3ccccc32)cc1 | 36.7 µM | > 100 µM | 39 µM | 32.6 µM | > 100 µM | > 100 µM | 55.6 µM |  | > 100 µM | 41.9 µM |  | > 100 µM | 
Cc1[nH]c(=O)nc(NNCc2ccc(Cl)cc2)c1C(=O)Nc1ccc(Cl)cc1 | > 100 µM | > 100 µM | > 100 µM | > 100 µM | > 100 µM | > 100 µM | > 100 µM |  | > 100 µM | > 100 µM | > 100 µM | > 100 µM | 
CCOC1CC(C)N(C(=O)c2ccccc2)O1 (stereo not given) | > 100 µM | > 100 µM |  | > 100 µM | > 100 µM | > 100 µM | > 100 µM |  | > 100 µM | > 100 µM | > 100 µM | > 100 µM | 
Cc1cnc2[nH]c(-c3ccc4ccccc4c3)cc(=O)c2c1 | > 100 µM | > 100 µM | 21.7 µM | > 100 µM | > 100 µM | > 100 µM |  | 2.25 µM | > 100 µM | > 100 µM |  | > 100 µM | 394 nM
CCOC(=O)c1cccc(NC(=O)CI)c1 | 0.307 µM | 3.41 µM |  |  | 0.664 µM |  | 0.521 µM | 0.347 µM | 9.39 µM | 1.64 µM |  | 3.77 µM | 
O=C(N/N=C/c1cc(Br)cc(Br)c1[O-])c1ccccc1O.O=C(N/N=C/c1cc(Br)cc(Br)c1[O-])c1ccccc1O.[Co+2] |  | 12.6 µM | 14.4 µM |  | 2.73 µM | 7.39 µM | 7.57 µM | 2.49 µM | 28.4 µM | 17.2 µM | 0.906 µM | 20 µM | 
Nc1nc(-c2ccco2)cc(-c2ccc(CO)o2)n1 | > 100 µM | > 100 µM | > 100 µM |  | > 100 µM | > 100 µM | > 100 µM | > 100 µM | > 100 µM | > 100 µM | > 100 µM | > 100 µM | 
ON=C(CC(O)(C(F)(F)Cl)C(F)(F)Cl)CC(O)(C(F)(F)Cl)C(F)(F)Cl | > 10 µM | > 10 µM | > 10 µM | > 10 µM |  | > 10 µM | > 10 µM | > 10 µM | > 10 µM | > 10 µM | > 10 µM | > 10 µM | 
CCOC(=O)c1nc2ccc(C(F)(F)F)cc2nc1Oc1ccc(C(=O)OC)cc1 | > 100 µM |  | > 100 µM | > 100 µM | > 100 µM | > 100 µM | > 100 µM |  | > 100 µM | > 100 µM | > 100 µM | > 100 µM | 
CC1=C(C)SC(=C2Sc3nc(O)[nH]c(=O)c3S2)S1 | > 100 µM | > 100 µM | > 100 µM | > 100 µM | 94.1 µM | > 100 µM | > 100 µM | > 100 µM | > 100 µM | > 100 µM |  | > 100 µM | 
OC1CSc2nc3ccccc3n2C1 (stereo not given) | > 100 µM | > 100 µM | > 100 µM | 77.7 µM | > 100 µM | > 100 µM | > 100 µM |  | > 100 µM | > 100 µM | > 100 µM | > 100 µM | 
CCOC(=O)c1nnc2c(C#N)c(-c3ccccc3)c(C)n2c1N | > 100 µM | > 100 µM | > 100 µM | 85.7 µM | > 100 µM |  | > 100 µM | 70.5 µM | 89.2 µM | > 100 µM |  | > 100 µM | 
CCC1NC(N=Nc2ccc([N+](=O)[O-])cc2)(P(=O)(OC(C)C)OC(C)C)OC1=O (stereo not given) |  | > 100 µM |  |  | > 100 µM |  | > 100 µM | > 100 µM | > 100 µM | > 100 µM | > 100 µM |  | 
